Publication PMC11162475, “Rule-based omics mining reveals antimicrobial macrocyclic peptides against drug-resistant clinical isolates” (Nature Communications, 2024)
In brackets after ≈: the same amount, converted by molar mass.

Key:
[1] = test system: S. aureus ATCC 25923; assay: Time-dependent killing assay; assay type: cell-based, Staphylococcus aureus; conditions: for log(CFU/mL) / CFU/mL: time-killing assay
Description: Time-dependent killing assay
An overnight culture of S. aureus ATCC 25923 cells was diluted at 1:10,000 in MHB medium and incubated at 37 ℃, 200 rpm for 2 hours to reach the early exponential.
Then, massatide A or vancomycin was added to the culture at the concentration of 10×MIC. Bacteria were still cultivated at 37 ℃, 200 rpm. Culture with no antibiotics was used as a negative control. 10 μL aliquots were removed at intervals, centrifuged, and resuspended in 1 ml PBS. Serially diluted (10-fold) suspensions were plated on MHB agar and incubated at 37 ℃ overnight for counting of colony-forming units.
Experiments were performed in triplicate. […]

[2] = test system: MRSA ATCC43300; assay: Mouse septicaemia model; assay type: in vivo; conditions: for number of new dead mouse: infection controlled in mouse; for survival rate of mice: 5 per group
Description: Briefly, 6-week-old specific pathogen-free male ICR mice weighing 18–20 g were randomly divided into 4 groups (5 per group). Each mouse received an intraperitoneal injection on the left side of the abdomen with 0.4 ml, 1.8 ×10^10 c.f.u./mL MRSA ATCC43300 suspended in saline containing 5% yeast in each mouse. One hour after infection, the mice were injected intraperitoneally with saline (negative control), massatide A dissolved in saline at 10 mg/kg, 30 mg/kg and 50 mg/kg (experimental groups). […] We injected 0.4 ml solution to each mouse. Animal deaths were recorded for 7 days, and the survival rates were calculated to generate the mouse survival curve.

[3] = test system: Escherichia coli DH5α; assay type: cell-based; conditions: DH5α, 20 h
Description: (§1) For MIC determination, Staphylococcus aureus ATCC25923, Bacillus subtilis 168, Micrococcus luteus DSM1790, Enterococcus faecalis OG1RF, Enterococcus faecium MCC2763, Escherichia coli DH5α and Pseudomonas aeruginosa PAO1 were used as indicator strains. Nisin and vancomycin were used as positive controls. A dilution series of massatide A, massatide B, vancomycin (16, 8, 4, 2, 1, 0.5, 0.25, 0.125, 0.0625, 0.0313 μg/mL) and sistertide A1, kebanetide A1, kebanetide A2, nisin (64, 32, 16, 8, 4, 2, 1, 0.5, 0.25, 0.125 μg/mL) were prepared in 96-well plate from 1–10th column. The indicator strains were added to the compound-containing well. The indicator strain culture with no antibiotics was prepared in the 11th column. The 12th column was filled with 200 μL empty MHB medium. The 96-well plate was incubated at 37 °C for 20 h (30 °C for M. luteus and B. subtilis). The OD600 was detected on MULTISKAN Sky (Thermo Scientific) and MIC values were determined. The MIC values of clinical isolates were determined by Sichuan Primed Shines Bio-tech Co., Ltd. (China) following similar protocol. Levofloxacin was used as a positive control.

[4] = test system: Pseudomonas aeruginosa PAO1; assay type: cell-based; conditions: PAO1, 20 h
Description: as §1

[5] = test system: tested gram-positive pathogens, including vancomycin intermediate-resistant strains; assay type: cell-based; conditions: 20 h
Description: as §1

[6] = test system: MRSA 15-1; assay: microbe, parasite or virus in culture; assay type: cell-based, Staphylococcus aureus; conditions: 15-1, 20 h
Description: as §1

[7] = test system: Micrococcus luteus DSM1790; assay: Kirby-Bauer assay, zone of inhibition (agar well); assay type: cell-based; conditions: M. luteus DSM1790; 10 μL DMSO stock (3.2 or 1.6 mg/mL) in well of soft LB agar, 30 °C, 20 h
Description: (§2) The stock solution of massatide A (1) and B (1a) 3.2 mg/mL were prepared in DMSO. 40 μL overnight culture of Micrococcus luteus DSM1790 was added to 20 mL soft Luria-Bertani agar (1% agar), and then poured into a plate. 10 μL tip was used to make two wells on the plate. 10 μL massatide A (1) or B (1a) solution was added in one of the wells, while in the other well, 10 μL DMSO was added as a negative control. The plates were incubated at 30 °C for 20 h to observe the zone of inhibition. Staphylococcus aureus ATCC25923 was also used to observe the inhibition zone using a similar method. The only difference is incubating at 37 °C. Stock solutions of sistertide A1, kebanetide A1 and A2 were 3.2 mg/mL, 1.6 mg/mL and 1.6 mg/mL, respectively. The method to observe the activity of these compounds individually was the same as that of massatide.

[8] = test system: Staphylococcus aureus ATCC25923; assay: Kirby-Bauer assay, zone of inhibition (agar well); assay type: cell-based; conditions: S. aureus ATCC25923; 10 μL of 3.2 mg/mL DMSO stock in well of soft LB agar, 37 °C, 20 h
Description: as §2

C/C=C1\NC(=O)C(N(C)C)C(C)SC[C@@H](C(=O)N[C@H](CC)C(=O)N[C@H](C(=O)N[C@@H](C)C(=O)N[C@H](C)C(=O)N[C@@H](Cc2ccccc2)C(=O)N[C@@H](C)C(=O)NC2C(=O)NCC(=O)N[C@@H](Cc3ccc(O)cc3)C(=O)N[C@@H](Cc3ccccc3)C(=O)N[C@H](C)C(=O)N/C=C\SC2C)C(C)C)NC(=O)[C@@H]2CCCN2C(=O)[C@H](C(C)C)NC1=O (stereo partly shown) [Massatide A (1), massatide A]
time-dependent killing, mode of killing ([1]; S. aureus, early exponential phase, 10×MIC, 37 °C, c.f.u. counting, triplicate): bactericidal | log(CFU/mL) ([1]; time 0 h, log of mean of 3 replicates): 6.553 log(CFU/mL) | CFU/mL ([1]; time 0 h, mean of 3 replicates): 3576667 CFU/mL | CFU/mL ([1]; time 0 h, replicate 1): 2840000 CFU/mL | log(CFU/mL) ([1]; time 0 h, replicate 1): 6.453 log(CFU/mL) | CFU/mL ([1]; time 0 h, replicate 2): 4020000 CFU/mL | log(CFU/mL) ([1]; time 0 h, replicate 2): 6.604 log(CFU/mL) | CFU/mL ([1]; time 0 h, replicate 3): 3870000 CFU/mL | log(CFU/mL) ([1]; time 0 h, replicate 3): 6.588 log(CFU/mL) | log(CFU/mL) ([1]; time 1 h, log of mean of 3 replicates): 4.699 log(CFU/mL) | CFU/mL ([1]; time 1 h, mean of 3 replicates): 50000 CFU/mL | CFU/mL ([1]; time 1 h, replicate 1): 70000 CFU/mL | log(CFU/mL) ([1]; time 1 h, replicate 1): 4.8451 log(CFU/mL) | CFU/mL ([1]; time 1 h, replicate 2): 50000 CFU/mL | log(CFU/mL) ([1]; time 1 h, replicate 2): 4.699 log(CFU/mL) | CFU/mL ([1]; time 1 h, replicate 3): 30000 CFU/mL | log(CFU/mL) ([1]; time 1 h, replicate 3): 4.477 log(CFU/mL) | log(CFU/mL) ([1]; time 3 h, log of mean of 3 replicates): 4.176 log(CFU/mL) | CFU/mL ([1]; time 3 h, mean of 3 replicates): 15000 CFU/mL | CFU/mL ([1]; time 3 h, replicate 1): 10000 CFU/mL | log(CFU/mL) ([1]; time 3 h, replicate 1): 4 log(CFU/mL) | CFU/mL ([1]; time 3 h, replicate 2): 20000 CFU/mL | log(CFU/mL) ([1]; time 3 h, replicate 2): 4.301 log(CFU/mL) | CFU/mL ([1]; time 3 h, replicate 3): 15000 CFU/mL | log(CFU/mL) ([1]; time 3 h, replicate 3): 4.176 log(CFU/mL) | log(CFU/mL) ([1]; time 7 h, log of mean of 3 replicates): 3.921 log(CFU/mL) | CFU/mL ([1]; time 7 h, mean of 3 replicates): 8333.33 CFU/mL | CFU/mL ([1]; time 7 h, replicate 1): 5000 CFU/mL | log(CFU/mL) ([1]; time 7 h, replicate 1): 3.699 log(CFU/mL) | CFU/mL ([1]; time 7 h, replicate 2): 10000 CFU/mL | log(CFU/mL) ([1]; time 7 h, replicate 2): 4 log(CFU/mL) | CFU/mL ([1]; time 7 h, replicate 3): 10000 CFU/mL | log(CFU/mL) ([1]; time 7 h, replicate 3): 4 log(CFU/mL) | log(CFU/mL) ([1]; time 26 h, log of mean of 3 replicates): 2.049 log(CFU/mL) | CFU/mL ([1]; time 26 h, mean of 3 replicates): 112 CFU/mL | CFU/mL ([1]; time 26 h, replicate 1): 70 CFU/mL | log(CFU/mL) ([1]; time 26 h, replicate 1): 1.8451 log(CFU/mL) | CFU/mL ([1]; time 26 h, replicate 2): 120 CFU/mL | log(CFU/mL) ([1]; time 26 h, replicate 2): 2.079 log(CFU/mL) | CFU/mL ([1]; time 26 h, replicate 3): 146 CFU/mL | log(CFU/mL) ([1]; time 26 h, replicate 3): 2.164 log(CFU/mL) | number of new dead mouse ([2]; 10mg/kg, time 2.29 day): 1 | number of new dead mouse ([2]; 10mg/kg, time 3 day): 0 | number of new dead mouse ([2]; 10mg/kg, time 4 day): 0 | number of new dead mouse ([2]; 10mg/kg, time 6 day): 0 | number of new dead mouse ([2]; 10mg/kg, time 7 day): 0 | number of new dead mouse ([2]; 30mg/kg, time 2.29 day): 1 | number of new dead mouse ([2]; 30mg/kg, time 3 day): 0 | number of new dead mouse ([2]; 30mg/kg, time 4 day): 0 | number of new dead mouse ([2]; 30mg/kg, time 6 day): 0 | number of new dead mouse ([2]; 30mg/kg, time 7 day): 0 | number of new dead mouse ([2]; 50mg/kg, time 2.29 day): 0 | number of new dead mouse ([2]; 50mg/kg, time 3 day): 0 | number of new dead mouse ([2]; 50mg/kg, time 4 day): 0 | number of new dead mouse ([2]; 50mg/kg, time 6 day): 0 | number of new dead mouse ([2]; 50mg/kg, time 7 day): 0 | survival rate of mice ([2]; single dose 10 mg/kg i.p. 1 h after i.p. infection with 7.2 × 10^9 c.f.u. MRSA ATCC43300, 7 days): 80% | survival rate of mice ([2]; single dose 50 mg/kg i.p. 1 h after i.p. infection with 7.2 × 10^9 c.f.u. MRSA ATCC43300, 7 days): 100% | MIC [3]: >128 µg/mL | MIC [4]: >128 µg/mL | MIC (potency) against tested gram-positive pathogens [5]: below 4 μg/mL | MIC [6]: 2 µg/mL (≈ 1.22 µM) | inhibitory activity (zone of inhibition) [7]: strong inhibitory activity | inhibitory activity (zone of inhibition) [8]: strong inhibitory activity
